According to the supplement of paper PMC11451515:

System: SEM cells
Assay: cell viability relative to DMSO control; higher = less cytotoxic
Settings: 48 h
Method in brief: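 NOMO1 or SEM (500 cells/well) or P12-Ichikawa (1000 cells/well) leukemia cells were adapted for at least four passages in each medium. They were seeded in 1536-well plates (5 μl) and pin-dosed with library compounds in DMSO over an 11-point threefold series, 47 μM to 0.79 nM. CellTiter-Glo One luminescence was read after 48 h at 37°C. Viability is the per-plate percentage relative to DMSO wells, with cell-free wells as background.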

[1] = HPLM + 10% dialyzed FBS, 0.000781 µM
[2] = HPLM + 10% dialyzed FBS, 0.00234 µM
[3] = HPLM + 10% dialyzed FBS, 0.00702 µM
[4] = HPLM + 10% dialyzed FBS, 0.0211 µM
[5] = HPLM + 10% dialyzed FBS, 0.0632 µM
[6] = HPLM + 10% dialyzed FBS, 0.19 µM
[7] = HPLM + 10% dialyzed FBS, 0.569 µM
[8] = HPLM + 10% dialyzed FBS, 1.71 µM
[9] = HPLM + 10% dialyzed FBS, 5.12 µM
[10] = HPLM + 10% dialyzed FBS, 15.4 µM
[11] = HPLM + 10% dialyzed FBS, 46.1 µM
[12] = RPMI 5 mM glucose + 10% FBS, 0.000781 µM
[13] = RPMI 5 mM glucose + 10% FBS, 0.00234 µM
[14] = RPMI 5 mM glucose + 10% FBS, 0.00702 µM
[15] = RPMI 5 mM glucose + 10% FBS, 0.0211 µM
[16] = RPMI 5 mM glucose + 10% FBS, 0.0632 µM
[17] = RPMI 5 mM glucose + 10% FBS, 0.19 µM
[18] = RPMI 5 mM glucose + 10% FBS, 0.569 µM
[19] = RPMI 5 mM glucose + 10% FBS, 1.71 µM
[20] = RPMI 5 mM glucose + 10% FBS, 5.12 µM
[21] = RPMI 5 mM glucose + 10% FBS, 15.4 µM
[22] = RPMI 5 mM glucose + 10% FBS, 46.1 µM
[23] = RPMI 5 mM glucose + 10% dialyzed FBS, 0.000781 µM
[24] = RPMI 5 mM glucose + 10% dialyzed FBS, 0.00234 µM
[25] = RPMI 5 mM glucose + 10% dialyzed FBS, 0.00702 µM
[26] = RPMI 5 mM glucose + 10% dialyzed FBS, 0.0211 µM
[27] = RPMI 5 mM glucose + 10% dialyzed FBS, 0.0632 µM
[28] = RPMI 5 mM glucose + 10% dialyzed FBS, 0.19 µM
[29] = RPMI 5 mM glucose + 10% dialyzed FBS, 0.569 µM
[30] = RPMI 5 mM glucose + 10% dialyzed FBS, 1.71 µM
[31] = RPMI 5 mM glucose + 10% dialyzed FBS, 5.12 µM
[32] = RPMI 5 mM glucose + 10% dialyzed FBS, 15.4 µM
[33] = RPMI 5 mM glucose + 10% dialyzed FBS, 46.1 µM

Row | SMILES | cell viability [1] | cell viability [2] | cell viability [3] | cell viability [4] | cell viability [5] | cell viability [6] | cell viability [7] | cell viability [8] | cell viability [9] | cell viability [10] | cell viability [11] | cell viability [12] | cell viability [13] | cell viability [14] | cell viability [15] | cell viability [16] | cell viability [17] | cell viability [18] | cell viability [19] | cell viability [20] | cell viability [21] | cell viability [22] | cell viability [23] | cell viability [24] | cell viability [25] | cell viability [26] | cell viability [27] | cell viability [28] | cell viability [29] | cell viability [30] | cell viability [31] | cell viability [32] | cell viability [33]
1 | Cc1ncc(OC[C@@]2(c3cccc(F)c3)C[C@H]2C(=O)Nc2ccc(F)cn2)c(C)n1 | 75.3% | 84.5% | 97.6% | 96% | 95.3% | 91.7% | 105% | 96% | 98.3% | 98.7% | 78.3% | 113% | 111% | 102% | 104% | 103% | 133% | 136% | 51.1% | 97.3% | 88.4% | 104% | 85.3% | 107% | 98.1% | 90.8% | 100% | 104% | 108% | 118% | 122% | 108% | 82.6%
2 | OCc1ccc(-c2nn(Cc3ccccc3)c3ccccc23)o1 | 115% | 128% | 124% | 111% | 113% | 113% | 117% | 38.1% | 96.1% | 44.6% | 19.3% | 116% | 110% | 126% | 100% | 119% | 107% | 98.1% | 18.2% | 80.9% | 37.4% | 11.2% | – | – | – | – | – | – | – | – | – | – | –
3 | C[C@@H]1CN[C@H]2[C@@H](C)[C@@]\3(CC[C@H]\4[C@@H]5C/C=C6/C[C@@H](O)CC[C@]6(C)[C@H]5CC4=C3C)O[C@@H]2C1 | 78.3% | 122% | 119% | 119% | 129% | 118% | 127% | 114% | 114% | 98.4% | 84.6% | 77.7% | 119% | 132% | 141% | 118% | 115% | 117% | 120% | 105% | 109% | 93.5% | – | – | – | – | – | – | – | – | – | – | –
4 | CC(=O)Nc1ccc([C@H](C)C(=O)Nc2ncc(C(C)C)s2)cc1 | 98.9% | 102% | 106% | 95.9% | 104% | 105% | 105% | 95.1% | 61.9% | 8.42% | 4.85% | 107% | 112% | 132% | 121% | 117% | 108% | 123% | 114% | 76% | 8.73% | 4.33% | 95.6% | 79.1% | 97.4% | 97.2% | 109% | 97.2% | 110% | 99.2% | 64.6% | 8.82% | 4.36%
5 | Cc1cc(Nc2nc(N[C@@H](C)c3ncc(F)cn3)ncc2Cl)n[nH]1 | 93% | 97.4% | 109% | 114% | 103% | 106% | 102% | 99.4% | 61.2% | 21.7% | 19.4% | 120% | 129% | 114% | 110% | 112% | 126% | 110% | 26.2% | 19% | 17.1% | 20.3% | – | – | – | – | – | – | – | – | – | – | –
6 | COc1cc2c(Oc3ccc(NC(=O)C4(C(=O)Nc5ccc(F)cc5)CC4)cc3F)ccnc2cc1OCCCN1CCOCC1 | 45.9% | 38.6% | 35.5% | 35.9% | 33.8% | 31.9% | 32.3% | 16.1% | 19.9% | 17.1% | 3.11% | 59.2% | 45.2% | 42.3% | 43.6% | 37.4% | 33.6% | 42.5% | 13.5% | 10.9% | 7.49% | 3.41% | 41.9% | 28.5% | 34.8% | 28.2% | 23.9% | 25.3% | 25.7% | 9.12% | 11.7% | 8.88% | 2.51%
7 | CC1(C)CCC(=C(CN2CCN(CC2)C3=CC=C(C=C3)C(=O)N[S+]([O-])(=O)C4=CC(=C(N[C@H](CCN5CCOCC5)CSC6=CC=CC=C6)C=C4)[S+]([O-])(=O)C(F)(F)F)\C1)/C7=CC=C(Cl)C=C7 | 124% | 124% | 126% | 106% | 80.9% | 18.3% | 11.3% | 8.83% | 8.56% | 7.32% | 5.38% | 85.5% | 108% | 95.9% | 82.8% | 42.1% | 19.6% | 8.77% | 6.49% | 5.65% | 5.78% | 4.31% | 111% | 135% | 100% | 102% | 49.6% | 21% | 9.94% | 6.79% | 6.8% | 5.99% | 4.42%
8 | CN(C)CCc1c[nH]c2ccc(C[C@H]3COC(=O)N3)cc12 | 72% | 89.4% | 97.7% | 95.1% | 99.3% | 108% | 96% | 88.2% | 72.9% | 29.7% | 7.45% | 78.3% | 85.5% | 89% | 97% | 90.9% | 88.7% | 88.2% | 73.8% | 47.8% | 13.3% | 5.94% | 88.8% | 94% | 89.5% | 99.8% | 95.7% | 96.3% | 93.7% | 80.8% | 75.6% | 26% | 7.13%
